What was measured:
Format in all cases: binding
[1] = tested on: human monoclonal antibody CRJA
[2] = tested on: human monoclonal antibody CR57
[3] = tested on: human monoclonal antibody CRJB
[4] = tested on: human monoclonal antibody CR57; remark: listed apart in the source
[5] = tested on: human monoclonal antibody CRJB; remark: listed apart in the source
[6] = tested on: human monoclonal antibody CRJA; remark: listed apart in the source

In the case of VTTTFKRKHFRPTPD, the “Binding of CRJA to linear peptide (PEPSCAN-ELISA signal)” value (from here on “Binding of CRJA to linear peptide”) [1] is reported as 77, the “Binding of CR57 to linear peptide (PEPSCAN-ELISA signal)” value (“Binding of CR57 to linear peptide” below) [2] is reported as 79 and the “Binding of CRJB (10 μg/ml) to looped/cyclic peptide (PEPSCAN-ELISA signal)” value [3] is reported as 83. For the same sequence, the “Binding of CR57 (10 μg/ml) to looped/cyclic peptide (PEPSCAN-ELISA signal)” value [4] was 101, the “Binding of CRJB to linear peptide (PEPSCAN-ELISA signal)” value (shortened to “Binding of CRJB to linear peptide”) [5] was 105 and the “Binding of CRJA (10 μg/ml) to looped/cyclic peptide (PEPSCAN-ELISA signal)” value [6] was 89.

With IPLVHPLADPSTVFK the “Binding of CRJA to linear peptide” value [1] was 130, the “Binding of CR57 to linear peptide” value [2] was 96 and the “Binding of CRJB (10 μg/ml) to looped/cyclic peptide (PEPSCAN-ELISA)” value [3] was 107. The “Binding of CR57 (10 μg/ml) to looped/cyclic peptide (PEPSCAN-ELISA)” value [4] was 99, the “Binding of CRJB to linear peptide” value [5] was 156 and the “Binding of CRJA (10 μg/ml) to looped/cyclic peptide (PEPSCAN-ELISA)” value [6] was 106.

For LSHLRKLVPGFGKAY, the “Binding of CRJA to linear peptide” value [1] was 93, the “Binding of CR57 to linear peptide” value [2] was 96 and the “Binding of CRJB (10 μg/ml) to looped/cyclic peptide (PEPSCAN-ELISA)” value [3] was 123. The “Binding of CR57 (10 μg/ml) to looped/cyclic peptide (PEPSCAN-ELISA)” value [4] was 121, the “Binding of CRJB to linear peptide” value [5] was 139 and the “Binding of CRJA (10 μg/ml) to looped/cyclic peptide (PEPSCAN-ELISA)” value [6] was 93.

In the case of EDFVEVHLPDVHNQV, the “Binding of human monoclonal antibody CRJA to linear peptide (PEPSCAN-ELISA signal)” value [1] is reported as 114, the “Binding of human monoclonal antibody CR57 to linear peptide (PEPSCAN-ELISA signal)” value [2] is reported as 90 and the “Binding of CRJB to looped/cyclic peptide (PEPSCAN-ELISA signal)” value (“Binding of CRJB to looped/cyclic peptide” for short) [3] is reported as 89. For the same sequence, the “Binding of CR57 to looped/cyclic peptide (PEPSCAN-ELISA signal)” value (shortened to “Binding of CR57 to looped/cyclic peptide”) [4] was 117, the “Binding of human monoclonal antibody CRJB to linear peptide (PEPSCAN-ELISA signal)” value [5] was 141 and the “Binding of CRJA to looped/cyclic peptide (PEPSCAN-ELISA signal)” value (“Binding of CRJA to looped/cyclic peptide” below) [6] was 104.

MELKVGYILAIKMNG was tested, and the “Binding of CRJA to linear peptide” value [1] was 92, the “Binding of CR57 to linear peptide” value [2] was 76 and the “Binding of CRJB (10 μg/ml) to looped/cyclic peptide (PEPSCAN-ELISA signal)” value [3] was 93. The “Binding of CR57 (10 μg/ml) to looped/cyclic peptide (PEPSCAN-ELISA signal)” value [4] was 71, the “Binding of CRJB to linear peptide” value [5] was 141 and the “Binding of CRJA (10 μg/ml) to looped/cyclic peptide (PEPSCAN-ELISA signal)” value [6] was 66.

With GIILGPDGNVLIPEM the “Binding of CRJA to linear peptide” value [1] was 107, the “Binding of CR57 to linear peptide” value [2] was 107 and the “Binding of CRJB (10 μg/ml) to looped/cyclic peptide (PEPSCAN-ELISA)” value [3] was 93. The “Binding of CR57 (10 μg/ml) to looped/cyclic peptide (PEPSCAN-ELISA)” value [4] was 108, the “Binding of CRJB to linear peptide” value [5] was 132 and the “Binding of CRJA (10 μg/ml) to looped/cyclic peptide (PEPSCAN-ELISA)” value [6] was 92.

QLVNLHDFRSDEIEH was tested, and the “Binding of CRJA to linear peptide” value [1] was 89, the “Binding of CR57 to linear peptide” value [2] was 60 and the “Binding of CRJB (10 μg/ml) to looped/cyclic peptide (PEPSCAN-ELISA)” value [3] was 44. For the same sequence, the “Binding of CR57 (10 μg/ml) to looped/cyclic peptide (PEPSCAN-ELISA)” value [4] was 47, the “Binding of CRJB to linear peptide” value [5] was 113 and the “Binding of CRJA (10 μg/ml) to looped/cyclic peptide (PEPSCAN-ELISA)” value [6] was 66.

For VFKDGDEAEDFVEVH, the “Binding of human monoclonal antibody CRJA to linear peptide (PEPSCAN-ELISA signal)” value [1] was 125, the “Binding of human monoclonal antibody CR57 to linear peptide (PEPSCAN-ELISA signal)” value [2] was 100 and the “Binding of CRJB to looped/cyclic peptide” value [3] was 125. The “Binding of CR57 to looped/cyclic peptide” value [4] was 168, the “Binding of human monoclonal antibody CRJB to linear peptide (PEPSCAN-ELISA signal)” value [5] was 106 and the “Binding of CRJA to looped/cyclic peptide” value [6] was 104.

In the case of SVSFRRLSHLRKLVP, the “Binding of CRJA to linear peptide” value [1] is reported as 101, the “Binding of CR57 to linear peptide” value [2] is reported as 64 and the “Binding of CRJB (10 μg/ml) to looped/cyclic peptide (PEPSCAN-ELISA)” value [3] is reported as 84. For the same sequence, the “Binding of CR57 (10 μg/ml) to looped/cyclic peptide (PEPSCAN-ELISA)” value [4] was 94, the “Binding of CRJB to linear peptide” value [5] was 123 and the “Binding of CRJA (10 μg/ml) to looped/cyclic peptide (PEPSCAN-ELISA)” value [6] was 98.

In the case of LGMSCDIFTNSRGKR, the “Binding of CRJA to linear peptide” value [1] is reported as 100, the “Binding of CR57 to linear peptide” value [2] is reported as 76 and the “Binding of CRJB (10 μg/ml) to looped/cyclic peptide (PEPSCAN-ELISA signal)” value [3] is reported as 105. For the same sequence, the “Binding of CR57 (10 μg/ml) to looped/cyclic peptide (PEPSCAN-ELISA signal)” value [4] was 102, the “Binding of CRJB to linear peptide” value [5] was 110 and the “Binding of CRJA (10 μg/ml) to looped/cyclic peptide (PEPSCAN-ELISA signal)” value [6] was 104.

PLADPSTVFKDGDEA was tested, and the “Binding of human monoclonal antibody CRJA to linear peptide (PEPSCAN-ELISA signal)” value [1] was 84, the “Binding of human monoclonal antibody CR57 to linear peptide (PEPSCAN-ELISA signal)” value [2] was 99 and the “Binding of CRJB to looped/cyclic peptide” value [3] was 97. The “Binding of CR57 to looped/cyclic peptide” value [4] was 148, the “Binding of human monoclonal antibody CRJB to linear peptide (PEPSCAN-ELISA signal)” value [5] was 125 and the “Binding of CRJA to looped/cyclic peptide” value [6] was 97.

With ELKVGYILAIKMNGF the “Binding of CRJA to linear peptide” value [1] was 84, the “Binding of CR57 to linear peptide” value [2] was 87 and the “Binding of CRJB (10 μg/ml) to looped/cyclic peptide (PEPSCAN-ELISA signal)” value [3] was 83. The “Binding of CR57 (10 μg/ml) to looped/cyclic peptide (PEPSCAN-ELISA signal)” value [4] was 84, the “Binding of CRJB to linear peptide” value [5] was 132 and the “Binding of CRJA (10 μg/ml) to looped/cyclic peptide (PEPSCAN-ELISA signal)” value [6] was 93.

For HNPYPDYRWLRTVKT, the “Binding of CRJA to linear peptide” value [1] was 98, the “Binding of CR57 to linear peptide” value [2] was 86 and the “Binding of CRJB (10 μg/ml) to looped/cyclic peptide (PEPSCAN-ELISA signal)” value [3] was 69. For the same sequence, the “Binding of CR57 (10 μg/ml) to looped/cyclic peptide (PEPSCAN-ELISA signal)” value [4] was 85, the “Binding of CRJB to linear peptide” value [5] was 108 and the “Binding of CRJA (10 μg/ml) to looped/cyclic peptide (PEPSCAN-ELISA signal)” value [6] was 65.

For SLKGACKLKLCGVLG, the “Binding of CRJA to linear peptide” value [1] was 99, the “Binding of CR57 to linear peptide” value [2] was 200 and the “binding of antibody CR57 to linear peptide (PEPSCAN OD)” value [2] was “bound”. For the same sequence, the “Binding of CRJB (10 μg/ml) to looped/cyclic peptide (PEPSCAN-ELISA)” value [3] was 79, the “Binding of CR57 (10 μg/ml) to looped/cyclic peptide (PEPSCAN-ELISA)” value [4] was 129 and the “Binding of CRJB to linear peptide” value [5] was 111. For the same sequence, the “Binding of CRJA (10 μg/ml) to looped/cyclic peptide (PEPSCAN-ELISA)” value [6] was 106.

In the case of TTFKRKHFRPTPDAC, the “Binding of CRJA to linear peptide” value [1] is reported as 111, the “Binding of CR57 to linear peptide” value [2] is reported as 74 and the “Binding of CRJB (10 μg/ml) to looped/cyclic peptide (PEPSCAN-ELISA signal)” value [3] is reported as 78. The “Binding of CR57 (10 μg/ml) to looped/cyclic peptide (PEPSCAN-ELISA signal)” value [4] was 86, the “Binding of CRJB to linear peptide” value [5] was 99 and the “Binding of CRJA (10 μg/ml) to looped/cyclic peptide (PEPSCAN-ELISA signal)” value [6] was 89.

From patent US20060263802A1 (priority 2003, published 2006)
